According to ChEMBL document CHEMBL3886282, “N-myristoyl transferase inhibitors” (2015):

Tests used:
[1] = target: T1, Glycylpeptide N-tetradecanoyltransferase 1 (Homo sapiens, UniProt P30419); assay: Enzyme Inhibition Assay: Measurements were performed using a modification of the scintillation proximity assay platform described previously by Georgopapadakou, N. H. et al. (22nd International Congress on Chemotherapy, 2001, Abstract P16.001). Compounds were solubilised in DMSO at a top concentration of 10 mM and serially diluted in half log steps to achieve a range of final assay concentrations …
T1 sequence (P30419 whole entry): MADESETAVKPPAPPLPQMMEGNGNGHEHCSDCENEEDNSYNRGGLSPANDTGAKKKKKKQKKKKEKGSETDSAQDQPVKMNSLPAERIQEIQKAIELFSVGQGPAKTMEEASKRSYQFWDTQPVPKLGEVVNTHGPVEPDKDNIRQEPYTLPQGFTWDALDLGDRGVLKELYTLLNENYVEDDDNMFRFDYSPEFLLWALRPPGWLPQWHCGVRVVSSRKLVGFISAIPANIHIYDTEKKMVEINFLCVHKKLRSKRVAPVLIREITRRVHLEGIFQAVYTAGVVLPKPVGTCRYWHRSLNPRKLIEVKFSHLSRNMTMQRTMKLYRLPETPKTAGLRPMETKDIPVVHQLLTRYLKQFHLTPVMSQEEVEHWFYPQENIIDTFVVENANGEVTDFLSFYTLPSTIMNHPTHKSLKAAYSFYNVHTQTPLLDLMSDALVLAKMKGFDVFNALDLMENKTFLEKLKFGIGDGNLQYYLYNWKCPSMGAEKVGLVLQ

[2] = target: T2, Glycylpeptide N-tetradecanoyltransferase (Leishmania major, UniProt Q4Q5S8); assay: as above
T2 sequence (Q4Q5S8 whole entry): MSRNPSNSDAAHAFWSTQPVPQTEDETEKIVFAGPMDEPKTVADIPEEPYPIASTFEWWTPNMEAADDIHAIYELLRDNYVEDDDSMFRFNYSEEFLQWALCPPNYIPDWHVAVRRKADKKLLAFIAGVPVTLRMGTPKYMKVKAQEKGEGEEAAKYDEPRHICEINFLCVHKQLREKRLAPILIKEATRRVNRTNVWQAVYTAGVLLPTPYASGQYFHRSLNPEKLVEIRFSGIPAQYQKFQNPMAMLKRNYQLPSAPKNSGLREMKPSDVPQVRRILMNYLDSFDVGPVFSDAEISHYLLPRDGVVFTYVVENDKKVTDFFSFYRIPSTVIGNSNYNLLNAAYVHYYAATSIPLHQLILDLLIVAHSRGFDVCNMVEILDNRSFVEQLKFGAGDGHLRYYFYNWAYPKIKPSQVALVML

`Cc1nn(C)c(C)c1N(C(F)F)S(=O)(=O)c1c(Cl)cc(CCCOC2CC(C)(C)N(C)C(C)(C)C2)cc1Cl` was tested, and the IC50 [1] was over 1000 nM and the IC50 [2] was 40 nM.
For `Cc1nn(C)c(C)c1N(C(F)F)[S+](=O)([O-])c1c(Cl)cc(Br)cc1Cl`, the IC50 [1] was over 1000 nM and the IC50 [2] was over 1000 nM.
